Experimental data reported in US20260191991A1, “COMPSTATIN ANALOGS FOR VECTOR-BASED THERAPY” (AMYNDAS PHARMACEUTICALS US LLC, priority 2022, published 2026).
Converted amounts (≈) assume the structure as drawn. Each block holds one molecule with its values, some of them ahead of it. Where a SMILES comes first, the peptide text is derived from it. Bridges are numbered along the chain shown (N, C = ends). Where no end group is shown, it is not given here.

Key:
C3 [1] = target: T1, C3 (Homo sapiens, UniProt P01024); details: background statement; cited from earlier work
Target sequence in this assay (P01024 23-1663): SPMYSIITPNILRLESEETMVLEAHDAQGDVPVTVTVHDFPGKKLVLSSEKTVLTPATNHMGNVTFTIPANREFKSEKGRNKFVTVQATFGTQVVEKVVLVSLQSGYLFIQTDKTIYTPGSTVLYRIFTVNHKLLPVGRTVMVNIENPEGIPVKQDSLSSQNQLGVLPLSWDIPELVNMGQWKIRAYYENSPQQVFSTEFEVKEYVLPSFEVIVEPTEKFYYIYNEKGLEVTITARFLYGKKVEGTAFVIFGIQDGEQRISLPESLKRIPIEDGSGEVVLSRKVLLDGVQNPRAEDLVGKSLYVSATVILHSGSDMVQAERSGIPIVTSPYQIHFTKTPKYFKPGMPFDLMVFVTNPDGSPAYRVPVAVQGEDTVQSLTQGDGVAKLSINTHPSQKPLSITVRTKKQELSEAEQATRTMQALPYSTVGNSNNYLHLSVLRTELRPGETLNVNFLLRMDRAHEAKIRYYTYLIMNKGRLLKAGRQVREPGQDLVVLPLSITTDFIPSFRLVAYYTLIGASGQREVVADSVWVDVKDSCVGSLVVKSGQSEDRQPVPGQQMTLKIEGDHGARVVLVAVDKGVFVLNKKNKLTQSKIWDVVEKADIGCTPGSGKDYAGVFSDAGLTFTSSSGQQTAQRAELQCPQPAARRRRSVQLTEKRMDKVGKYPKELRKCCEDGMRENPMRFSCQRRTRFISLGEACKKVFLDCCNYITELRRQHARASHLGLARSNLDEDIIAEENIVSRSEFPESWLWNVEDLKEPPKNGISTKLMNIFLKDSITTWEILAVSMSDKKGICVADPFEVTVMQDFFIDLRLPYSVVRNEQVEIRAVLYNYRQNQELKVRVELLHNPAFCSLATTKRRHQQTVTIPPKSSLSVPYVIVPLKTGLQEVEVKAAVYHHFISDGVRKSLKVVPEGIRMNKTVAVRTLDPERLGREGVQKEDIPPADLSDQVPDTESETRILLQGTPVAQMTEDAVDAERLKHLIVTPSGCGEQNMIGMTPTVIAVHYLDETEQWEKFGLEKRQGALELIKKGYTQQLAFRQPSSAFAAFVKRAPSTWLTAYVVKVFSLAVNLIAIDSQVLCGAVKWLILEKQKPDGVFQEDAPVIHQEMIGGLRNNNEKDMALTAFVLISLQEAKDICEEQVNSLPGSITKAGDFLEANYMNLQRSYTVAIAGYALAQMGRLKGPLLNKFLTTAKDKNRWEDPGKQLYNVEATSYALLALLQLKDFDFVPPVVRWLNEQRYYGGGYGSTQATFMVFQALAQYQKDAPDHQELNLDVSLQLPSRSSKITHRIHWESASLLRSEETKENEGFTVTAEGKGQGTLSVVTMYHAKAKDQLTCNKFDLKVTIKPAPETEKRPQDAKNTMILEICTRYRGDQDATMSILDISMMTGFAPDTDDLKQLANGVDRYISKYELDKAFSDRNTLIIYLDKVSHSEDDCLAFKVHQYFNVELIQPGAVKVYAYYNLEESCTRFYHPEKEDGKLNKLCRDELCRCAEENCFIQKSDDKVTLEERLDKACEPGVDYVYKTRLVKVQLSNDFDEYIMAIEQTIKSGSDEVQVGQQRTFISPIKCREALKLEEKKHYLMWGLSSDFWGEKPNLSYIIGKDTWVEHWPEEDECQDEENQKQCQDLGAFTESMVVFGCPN

[2] = Solubility in DPBS (Table 1); format: physicochemical; details: Dulbecco's phosphate buffered saline; measured as OD (280 nm) at saturation
C3 [3] = target: T1, C3; test: KD (Table 1); format: binding
[4] = tested on: laser-induced choroidal neovascularization (CNV); test: Laser-induced choroidal neovascularization, nonhuman primate model of wet-type AMD, fluorescein angiography lesion grading; format: in vivo, macaque; details: for CNV lesion size, % of baseline: third Cp50-treated animal (K-2434)
Protocol: The effects of the compstatin analogue Cp50 (described above) were compared vs. vehicle, in a nonhuman primate model of wet-type age-related macular degeneration (AMD). In this model, laser-induced choroidal neovascularization (CNV) was performed in the eyes of macaques.
Laser-induced CNV was performed in both eyes of the macaques, as described below. Two weeks (Day 14) after laser photocoagulation, laser lesions were graded (Grade 1-4) via fluorescein angiograms (FA).
Under ketamine (15 mg/kg, i.m.) and xylazine (2 mg/kg, i.m), on Day 15, the eyes were intravitreally (IVT) injected with either vehicle, or compstatin Cp50. FA measurements were performed on weeks 4, 6, 8 10 and 12 (total of five times), following CNV.
Briefly, under light ketamine (10 mg/kg, i.m.) anesthesia, the pupils were dilated with tropicamide/phenylephrine (Mydrin-P® ophthalmic solution; Santen Pharmaceutical Co., Osaka, Japan). For the laser treatment, the macaques were anesthetized with a combination of ketamine (15 mg/kg, i.m.; Daiichi Sankyo Propharma Co., Tokyo, Japan) and xylazine (2 mg/kg, i.m.; Bayer Yakuhin, Osaka, Japan). A green laser (900 mW output; Green Scan Laser Photocoagulator, GYC-500, Nidek, Co., Gamagori, Japan) was applied to eight spots (about 75 μm, 0.1 s duration) around the macula in a grid pattern. The extent of CNV lesion was assessed using fluorescence angiography (FA) at predetermined time points.
On the day of lesion grading, under light ketamine (10 mg/kg, i.m.) anesthesia, the pupils were dilated with tropicamide/phenylephrine (Mydrin-P® ophthalmic solution), and then the macaques were anesthetized with a combination of ketamine (15 mg/kg, i.m.) and xylazine (2 mg/kg, i.m).
Fluorescence Angiography (FA) was used to check the extent of CNV in the back of the eye. Ten percent sodium fluorescein (Fluorescite®; 10 mg/kg, i.v.; Novartis, Tokyo, Japan) was injected and a fundus camera took pictures of the back of the eye at about 1, 3, and 5 min after i.v. injection.
Following randomization, under ketamine (15 mg/kg, i.m.) and xylazine (2 mg/kg, i.m), on Day 15, the eyes were intravitreally (IVT) injected with 50 μl of either vehicle, or Cp50. Before IVT injection, eyes were treated twice daily for three days with levofloxacin hydrate (0.5%; Cravit®, Santen Pharmaceutical Co.).
Under anesthesia, a solution of tropicamide/phenylephrine HCl (Mydrin®-P), levofloxacin hydrate (0.5%; Santen Pharmaceutical Co.), and oxybuprocaine HCl (0.4%; Santen Pharmaceutical Co.) was instilled before dosing.

C3 protein = target: T2, C3 protein (UniProt P01024 23-1663, limits assumed); test: method not stated (Table 1; target C3 implied)
T2 construct: also called complement component C3; plasma protein C3
T2 sequence (P01024 23-1663 limits assumed): as the sequence (P01024 23-1663) above

Molecule: CC[C@H](C)[C@H](N)C(=O)N[C@H]1CSSC[C@@H](C(=O)N[C@H](C(N)=O)[C@@H](C)O)NC(=O)[C@H](CCCN=C(N)N)NC(=O)[C@H](Cc2cnc[nH]2)NC(=O)[C@H](Cc2cnc[nH]2)NC(=O)CNC(=O)[C@H](Cc2c[nH]c3ccccc23)NC(=O)[C@H](CC(=O)O)NC(=O)[C@H](CCC(N)=O)NC(=O)[C@H](C(C)C)NC(=O)[C@H](C(C)C)NC1=O [Compstatin]
binding affinity for C3 (C3 [1]): micromolar

Molecule: CC[C@H](C)[C@H](NC(=O)[C@H](N)Cc1ccc(O)cc1)C(=O)N[C@H]1CSSC[C@@H](C(=O)N(C)[C@H](C(N)=O)[C@@H](C)CC)NC(=O)[C@H](CCCNC(=N)N)NC(=O)[C@H](Cc2c[nH]cn2)NC(=O)[C@H](C)NC(=O)CN(C)C(=O)[C@H](Cc2c[nH]c3ccccc23)NC(=O)[C@H](CC(=O)O)NC(=O)[C@H](CCC(N)=O)NC(=O)[C@H](Cc2cn(C)c3ccccc23)NC(=O)[C@H](C(C)C)NC1=O [Cp40, dTyr-Ile-[Cys-Val-1MeTrp-Gln-Asp-Trp-Sar-Ala-His-Arg-Cys]-mIle, reference compound]
Solubility DPBS [2]: 0.8 mg/mL (≈ 0.447 mM)

Molecule: CC[C@H](C)[C@H](NC(=O)[C@@H]1CSSC[C@H](NC(=O)[C@@H](NC(=O)[C@@H](N)Cc2ccc(O)cc2)[C@@H](C)CC)C(=O)N[C@@H]([C@@H](C)CC)C(=O)N[C@@H](Cc2c[nH]c3ccccc23)C(=O)N[C@@H](CCC(N)=O)C(=O)N[C@@H](CC(=O)O)C(=O)N[C@@H](Cc2c[nH]c3ccccc23)C(=O)NCC(=O)N[C@@H](CCC(=O)O)C(=O)N[C@@H](Cc2c[nH]cn2)C(=O)N[C@@H](CCCNC(=N)N)C(=O)N1)C(=O)N[C@@H](CCCCN)C(=O)N[C@@H](CCCCN)C(=O)N[C@@H](CCCCN)C(=O)O [Cp51] (HELM PEPTIDE1{Y.I.C.I.W.Q.D.W.G.E.H.R.C.I.K.K.K}$PEPTIDE1,PEPTIDE1,3:R3-13:R3$$$V2.0; N-terminus and C-terminus assumed)
solubility [2]: > 250 mg/mL

Continued, in another order:

Kd (C3 [3]): 0.5 nM
solubility [2]: > 250 mg/mL
Molecule: CC[C@H](C)[C@H](NC(=O)[C@@H]1CSSC[C@H](NC(=O)[C@@H](NC(=O)[C@@H](N)Cc2ccc(O)cc2)[C@@H](C)CC)C(=O)N[C@@H]([C@@H](C)CC)C(=O)N[C@@H](Cc2c[nH]c3ccccc23)C(=O)N[C@@H](CCC(N)=O)C(=O)N[C@@H](CC(=O)O)C(=O)N[C@@H](Cc2c[nH]c3ccccc23)C(=O)NCC(=O)N[C@@H](C)C(=O)N[C@@H](Cc2c[nH]cn2)C(=O)N[C@@H](CCCNC(=N)N)C(=O)N1)C(=O)N[C@@H](CCCCN)C(=O)N[C@@H](CCCCN)C(=O)N[C@@H](CCCCN)C(=O)O [Cp50] (HELM PEPTIDE1{Y.I.C.I.W.Q.D.W.G.A.H.R.C.I.K.K.K}$PEPTIDE1,PEPTIDE1,3:R3-13:R3$$$V2.0; N-terminus and C-terminus assumed)
mean Grade 4 lesion compared to eyes treated with vehicle ([4]; Weeks 4, 6, 8 and 12, intravitreal injection on Day 15): reduced
CNV lesion size, % of baseline ([4]; by week 6): 50%
CNV lesion size, % of baseline ([4]; by week 12): 25%
CNV lesion size ([4]; two Cp50-treated eyes, as early as week 4 post laser-induced CNV): decline
reduction of Grade 4 lesion ratios ([4]; two Cp50-treated eyes, from week 6 onwards until week 12): 100%

Kd (C3 protein): 1 nM
Molecule: YICIWQDWGEHRCIKKK (disulfide 3-13) [Cp51]
